Reference: patent US10857163B1, “Compositions that preferentially potentiate subtypes of GABAA receptors and methods of use thereof” (priority 2019, dated 2020)

Tests used:
[1] = target: picrotoxin binding site of GABAA receptors; conditions: membranes isolated from the cortices of rat brains; Table 1 of WO 2016/061527; read-out: IC50 in the TBPS displacement assay; cited from earlier work
α1β2γ2 GABAA receptor [2] = target: T1, α1β2γ2 GABAA receptor (Homo sapiens, UniProt P14867+P18507+P47870); conditions: 10 μM neurosteroid, GABA 2 μM (EC20), LTK cells; Table 2 of WO 2016/061527; cited from earlier work
T1 construct: expressed in transfected cells
T1 sequence (P14867 28-456): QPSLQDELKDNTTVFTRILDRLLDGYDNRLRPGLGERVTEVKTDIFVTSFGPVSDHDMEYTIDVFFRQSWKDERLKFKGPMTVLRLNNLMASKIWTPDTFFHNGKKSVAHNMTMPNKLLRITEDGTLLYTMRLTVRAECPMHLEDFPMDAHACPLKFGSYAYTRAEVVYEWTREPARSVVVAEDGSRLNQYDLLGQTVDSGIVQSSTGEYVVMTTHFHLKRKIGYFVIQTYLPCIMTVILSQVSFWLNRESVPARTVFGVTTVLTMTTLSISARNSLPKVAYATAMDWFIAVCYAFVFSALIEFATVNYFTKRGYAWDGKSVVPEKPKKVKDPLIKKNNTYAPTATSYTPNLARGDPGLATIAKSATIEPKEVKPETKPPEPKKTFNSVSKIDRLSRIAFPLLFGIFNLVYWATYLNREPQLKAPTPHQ
T1 sequence (P47870 25-512 limits assumed): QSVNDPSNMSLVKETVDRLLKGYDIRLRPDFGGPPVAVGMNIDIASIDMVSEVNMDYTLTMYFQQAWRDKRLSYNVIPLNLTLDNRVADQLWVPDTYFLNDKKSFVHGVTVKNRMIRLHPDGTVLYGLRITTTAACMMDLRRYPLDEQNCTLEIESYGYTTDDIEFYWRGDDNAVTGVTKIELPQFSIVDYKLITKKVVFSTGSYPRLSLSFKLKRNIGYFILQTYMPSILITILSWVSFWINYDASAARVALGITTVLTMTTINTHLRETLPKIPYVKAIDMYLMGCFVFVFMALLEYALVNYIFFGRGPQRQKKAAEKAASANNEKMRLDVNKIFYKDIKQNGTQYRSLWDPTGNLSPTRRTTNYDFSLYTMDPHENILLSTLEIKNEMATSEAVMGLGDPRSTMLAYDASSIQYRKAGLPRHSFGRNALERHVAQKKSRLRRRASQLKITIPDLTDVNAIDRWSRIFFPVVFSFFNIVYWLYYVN
T1 sequence (P18507 40-475): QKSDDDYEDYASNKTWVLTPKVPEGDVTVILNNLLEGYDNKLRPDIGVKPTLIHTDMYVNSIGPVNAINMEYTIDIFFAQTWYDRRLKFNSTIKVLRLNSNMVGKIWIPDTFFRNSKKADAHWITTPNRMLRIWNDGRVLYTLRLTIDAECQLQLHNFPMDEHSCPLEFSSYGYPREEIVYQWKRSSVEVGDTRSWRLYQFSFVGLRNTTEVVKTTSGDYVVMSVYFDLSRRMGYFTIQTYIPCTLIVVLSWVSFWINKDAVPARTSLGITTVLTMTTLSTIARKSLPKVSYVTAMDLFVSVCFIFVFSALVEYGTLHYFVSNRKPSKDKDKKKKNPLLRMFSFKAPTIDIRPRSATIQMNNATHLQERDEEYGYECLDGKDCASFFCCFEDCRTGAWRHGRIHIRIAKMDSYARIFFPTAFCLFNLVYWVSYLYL

α4β3δ GABAA receptor [3] = target: T2, α4β3δ GABAA receptor (Homo sapiens, UniProt O14764+P28472+P48169); set-up: expressed in transfected cells; host or cells: CHO cells (transient); conditions: 10 μM neurosteroid, GABA 2 μM (EC20), CHO cells; Table 2 of WO 2016/061527; cited from earlier work
T2 sequence (P48169 36-554): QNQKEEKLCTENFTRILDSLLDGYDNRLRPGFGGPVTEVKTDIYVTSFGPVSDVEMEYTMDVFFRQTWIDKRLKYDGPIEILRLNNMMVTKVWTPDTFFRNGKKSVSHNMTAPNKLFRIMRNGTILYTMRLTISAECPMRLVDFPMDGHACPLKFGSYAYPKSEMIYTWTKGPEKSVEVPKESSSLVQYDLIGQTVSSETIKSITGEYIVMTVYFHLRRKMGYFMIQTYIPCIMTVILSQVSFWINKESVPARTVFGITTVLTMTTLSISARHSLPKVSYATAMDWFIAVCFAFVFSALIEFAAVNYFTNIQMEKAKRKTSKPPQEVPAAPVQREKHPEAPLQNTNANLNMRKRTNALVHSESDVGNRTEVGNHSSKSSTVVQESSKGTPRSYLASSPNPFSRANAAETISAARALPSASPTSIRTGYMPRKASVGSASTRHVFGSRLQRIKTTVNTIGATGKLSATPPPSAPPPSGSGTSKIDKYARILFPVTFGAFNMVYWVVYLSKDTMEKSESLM
T2 sequence (P28472 26-473): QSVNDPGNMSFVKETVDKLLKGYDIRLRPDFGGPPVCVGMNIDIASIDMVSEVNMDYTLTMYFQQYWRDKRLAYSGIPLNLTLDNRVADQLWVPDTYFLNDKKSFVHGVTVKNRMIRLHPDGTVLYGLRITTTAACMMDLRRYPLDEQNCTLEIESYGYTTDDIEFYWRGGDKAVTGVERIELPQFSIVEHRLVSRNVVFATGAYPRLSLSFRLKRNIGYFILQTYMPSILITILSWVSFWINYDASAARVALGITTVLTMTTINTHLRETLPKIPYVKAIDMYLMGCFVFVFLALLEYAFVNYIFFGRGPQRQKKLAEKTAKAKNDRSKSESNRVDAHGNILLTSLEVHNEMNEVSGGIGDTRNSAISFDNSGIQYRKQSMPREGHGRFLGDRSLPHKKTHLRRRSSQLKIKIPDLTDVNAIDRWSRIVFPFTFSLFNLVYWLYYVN
T2 sequence (O14764 25-452): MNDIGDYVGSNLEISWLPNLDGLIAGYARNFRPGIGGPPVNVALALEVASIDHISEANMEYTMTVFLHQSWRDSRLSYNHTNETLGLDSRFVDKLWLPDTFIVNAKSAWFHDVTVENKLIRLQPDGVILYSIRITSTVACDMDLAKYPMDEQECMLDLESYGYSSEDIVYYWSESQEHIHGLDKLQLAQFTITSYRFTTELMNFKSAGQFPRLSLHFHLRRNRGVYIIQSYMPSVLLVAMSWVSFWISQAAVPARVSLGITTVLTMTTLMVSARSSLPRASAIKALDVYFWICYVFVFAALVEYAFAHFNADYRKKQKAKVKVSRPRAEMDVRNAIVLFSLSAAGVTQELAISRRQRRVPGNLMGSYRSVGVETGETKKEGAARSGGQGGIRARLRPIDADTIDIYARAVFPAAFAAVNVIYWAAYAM

α5β2γ2 GABAA receptor = target: T3, α5β2γ2 GABAA receptor (Homo sapiens, UniProt P18507+P31644+P47870); assay: FLIPR modulation of GABAA receptor subtype in expressing cells; assay type: cell-based; conditions: cells exposed to GABA plus compound, — = value not measurable
T3 construct: expressed in transfected cells
T3 sequence (P31644 32-462): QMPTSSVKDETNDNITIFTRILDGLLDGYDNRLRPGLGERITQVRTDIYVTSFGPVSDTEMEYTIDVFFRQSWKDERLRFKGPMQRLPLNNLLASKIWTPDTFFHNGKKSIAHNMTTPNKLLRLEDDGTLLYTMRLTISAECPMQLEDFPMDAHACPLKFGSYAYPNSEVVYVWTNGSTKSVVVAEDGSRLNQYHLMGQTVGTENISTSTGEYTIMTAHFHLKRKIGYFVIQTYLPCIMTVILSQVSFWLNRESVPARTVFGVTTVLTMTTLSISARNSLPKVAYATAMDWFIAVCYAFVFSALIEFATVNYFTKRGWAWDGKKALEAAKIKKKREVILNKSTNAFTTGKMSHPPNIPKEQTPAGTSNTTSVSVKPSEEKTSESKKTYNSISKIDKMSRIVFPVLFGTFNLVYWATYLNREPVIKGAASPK
T3 sequence (P47870 25-512 limits assumed): as the sequence (P47870 25-512 limits assumed) above
T3 sequence (P18507 40-475): as the sequence (P18507 40-475) above
Experimental: (§1) Cells expressing the indicated GABAA receptor subtype were exposed to gamma-aminobutyric acid in the presence of varying concentrations of either CV-10155 or SPNC-019, calcium flux was measured using a fluorometric imaging plate reader (FLIPR), and EC50 values for compounds were determined.

α5β3γ2 GABAA receptor = target: T4, α5β3γ2 GABAA receptor (Homo sapiens, UniProt P18507+P28472+P31644); assay: as above; assay type: cell-based; conditions: cells exposed to GABA plus compound, — = value not measurable
T4 construct: expressed in transfected cells
T4 sequence (P31644 32-462): as the sequence (P31644 32-462) above
T4 sequence (P28472 26-473): as the sequence (P28472 26-473) above
T4 sequence (P18507 40-475): as the sequence (P18507 40-475) above
Experimental: as §1

α6β3γ2 GABAA receptor = target: T5, α6β3γ2 GABAA receptor (Homo sapiens, UniProt P18507+P28472+Q16445); assay: as above; assay type: cell-based; conditions: cells exposed to GABA plus compound, — = value not measurable
T5 construct: expressed in transfected cells
T5 sequence (Q16445 20-453): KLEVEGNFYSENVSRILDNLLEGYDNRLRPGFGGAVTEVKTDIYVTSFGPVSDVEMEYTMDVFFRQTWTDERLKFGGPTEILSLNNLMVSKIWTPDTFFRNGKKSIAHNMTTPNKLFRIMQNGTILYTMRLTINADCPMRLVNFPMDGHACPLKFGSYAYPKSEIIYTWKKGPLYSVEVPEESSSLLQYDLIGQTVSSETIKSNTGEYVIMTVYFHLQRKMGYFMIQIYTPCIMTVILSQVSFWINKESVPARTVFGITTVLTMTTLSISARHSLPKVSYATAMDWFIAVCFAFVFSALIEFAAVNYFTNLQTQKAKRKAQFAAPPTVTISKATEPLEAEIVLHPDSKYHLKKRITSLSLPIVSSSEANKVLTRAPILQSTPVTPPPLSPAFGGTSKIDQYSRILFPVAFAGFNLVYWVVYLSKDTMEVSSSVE
T5 sequence (P28472 26-473): as the sequence (P28472 26-473) above
T5 sequence (P18507 40-475): as the sequence (P18507 40-475) above
Experimental: as §1

GABAA receptor subtypes = assay: FLIPR panel of 18 GABAA receptor subtypes, overall statement; assay type: cell-based; conditions: 18 subtypes
Experimental: as §1
The only structural difference between CV-10155 and SPNC-019 is the stereochemical configuration of the hydroxyl and methyl groups attached to the carbon atom at position 3 of the steroid core. […] The results further indicate that the isomeric purity of neurosteroid compositions greatly impacts the utility of such compositions as therapeutic agents.

α1β1γ2 GABAA receptor = target: T6, α1β1γ2 GABAA receptor (Homo sapiens, UniProt P14867+P18505+P18507); assay: FLIPR modulation of GABAA receptor subtype in expressing cells; assay type: cell-based; conditions: cells exposed to GABA plus compound, — = value not measurable
T6 construct: expressed in transfected cells
Experimental: as §1

α1β2γ2 GABAA receptor [4] = target: T1, α1β2γ2 GABAA receptor; assay: as above; assay type: cell-based; conditions: cells exposed to GABA plus compound, — = value not measurable
Experimental: as §1

α1β3γ2 GABAA receptor = target: T7, α1β3γ2 GABAA receptor (Homo sapiens, UniProt P14867+P18507+P28472); assay: as above; assay type: cell-based; conditions: cells exposed to GABA plus compound, — = value not measurable
T7 construct: expressed in transfected cells
T7 sequence (P14867 28-456): as the sequence (P14867 28-456) above
T7 sequence (P28472 26-473): as the sequence (P28472 26-473) above
T7 sequence (P18507 40-475): as the sequence (P18507 40-475) above
Experimental: as §1

α2β1γ2 GABAA receptor = target: T8, α2β1γ2 GABAA receptor (Homo sapiens, UniProt P18505+P18507+P47869); assay: as above; assay type: cell-based; conditions: cells exposed to GABA plus compound, — = value not measurable
T8 construct: expressed in transfected cells
Experimental: as §1

α2β2γ2 GABAA receptor = target: T9, α2β2γ2 GABAA receptor (Homo sapiens, UniProt P18507+P47869+P47870); assay: as above; assay type: cell-based; conditions: cells exposed to GABA plus compound, — = value not measurable
T9 construct: expressed in transfected cells
Experimental: as §1

α2β3γ2 GABAA receptor = target: T10, α2β3γ2 GABAA receptor (Homo sapiens, UniProt P18507+P28472+P47869); assay: as above; assay type: cell-based; conditions: cells exposed to GABA plus compound, — = value not measurable
T10 construct: expressed in transfected cells
Experimental: as §1

α3β1γ2 GABAA receptor = target: T11, α3β1γ2 GABAA receptor (Homo sapiens, UniProt P18505+P18507+P34903); assay: as above; assay type: cell-based; conditions: cells exposed to GABA plus compound, — = value not measurable
T11 construct: expressed in transfected cells
Experimental: as §1

α3β2γ2 GABAA receptor = target: T12, α3β2γ2 GABAA receptor (Homo sapiens, UniProt P18507+P34903+P47870); assay: as above; assay type: cell-based; conditions: cells exposed to GABA plus compound, — = value not measurable
T12 construct: expressed in transfected cells
T12 sequence (P34903 29-492): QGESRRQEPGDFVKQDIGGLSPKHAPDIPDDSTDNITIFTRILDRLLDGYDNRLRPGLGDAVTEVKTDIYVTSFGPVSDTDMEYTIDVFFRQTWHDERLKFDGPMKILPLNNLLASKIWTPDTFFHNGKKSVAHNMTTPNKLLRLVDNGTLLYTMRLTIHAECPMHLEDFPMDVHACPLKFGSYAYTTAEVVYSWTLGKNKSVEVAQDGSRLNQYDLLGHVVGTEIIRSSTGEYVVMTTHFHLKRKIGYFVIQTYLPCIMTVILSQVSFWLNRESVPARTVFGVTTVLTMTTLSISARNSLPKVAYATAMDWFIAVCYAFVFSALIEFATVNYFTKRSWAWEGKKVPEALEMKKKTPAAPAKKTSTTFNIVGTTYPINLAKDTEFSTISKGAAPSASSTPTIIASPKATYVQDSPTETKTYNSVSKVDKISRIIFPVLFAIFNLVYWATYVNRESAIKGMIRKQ
T12 sequence (P47870 25-512 limits assumed): as the sequence (P47870 25-512 limits assumed) above
T12 sequence (P18507 40-475): as the sequence (P18507 40-475) above
Experimental: as §1

α3β3γ2 GABAA receptor = target: T13, α3β3γ2 GABAA receptor (Homo sapiens, UniProt P18507+P28472+P34903); assay: as above; assay type: cell-based; conditions: cells exposed to GABA plus compound, — = value not measurable
T13 construct: expressed in transfected cells
T13 sequence (P34903 29-492): as the sequence (P34903 29-492) above
T13 sequence (P28472 26-473): as the sequence (P28472 26-473) above
T13 sequence (P18507 40-475): as the sequence (P18507 40-475) above
Experimental: as §1

α4β1γ2 GABAA receptor = target: T14, α4β1γ2 GABAA receptor (Homo sapiens, UniProt P18505+P18507+P48169); assay: as above; assay type: cell-based; conditions: cells exposed to GABA plus compound, — = value not measurable
T14 construct: expressed in transfected cells
Experimental: as §1

α4β3γ2 GABAA receptor = target: T15, α4β3γ2 GABAA receptor (Homo sapiens, UniProt P18507+P28472+P48169); assay: as above; assay type: cell-based; conditions: cells exposed to GABA plus compound, — = value not measurable
T15 construct: expressed in transfected cells
Experimental: as §1

α5β1γ2 GABAA receptor = target: T16, α5β1γ2 GABAA receptor (Homo sapiens, UniProt P18505+P18507+P31644); assay: as above; assay type: cell-based; conditions: cells exposed to GABA plus compound, — = value not measurable
T16 construct: expressed in transfected cells
Experimental: as §1

α6β1γ2 GABAA receptor = target: T17, α6β1γ2 GABAA receptor (Homo sapiens, UniProt P18505+P18507+Q16445); assay: as above; assay type: cell-based; conditions: cells exposed to GABA plus compound, — = value not measurable
T17 construct: expressed in transfected cells
Experimental: as §1

α6β2γ2 GABAA receptor = target: T18, α6β2γ2 GABAA receptor (Homo sapiens, UniProt P18507+P47870+Q16445); assay: as above; assay type: cell-based; conditions: cells exposed to GABA plus compound, — = value not measurable
T18 construct: expressed in transfected cells
T18 sequence (Q16445 20-453): as the sequence (Q16445 20-453) above
T18 sequence (P47870 25-512 limits assumed): as the sequence (P47870 25-512 limits assumed) above
T18 sequence (P18507 40-475): as the sequence (P18507 40-475) above
Experimental: as §1

α4β3δ GABAA receptor [5] = target: T2, α4β3δ GABAA receptor; assay: as above; assay type: cell-based; set-up: expressed in transfected cells
Experimental: as §1

Question: With `C[C@@]1(O)CC[C@@]2(C)[C@H](CC[C@@H]3[C@@H]2CC[C@]2(C)[C@@H](C(=O)Cn4cc(C#N)cn4)CC[C@@H]32)C1` [Compound 10] as the compound, how does the IC50 [1] read?
Answer: < 0.01 µM

Question: Which results are given for `C[C@@]1(O)CC[C@@]2(C)[C@@H](CC[C@@H]3[C@@H]2CC[C@]2(C)[C@@H](C(=O)Cn4ccc(C#N)n4)CC[C@@H]32)C1` [Compound 121]?
Answer: IC50 [1]: 0.01 to 0.05 µM; efficacy: relative potentiation of GABA-mediated conductance, α1β2γ2 (α1β2γ2 GABAA receptor [2]): > 500%; efficacy: relative potentiation of GABA-mediated conductance, α4β3δ (α4β3δ GABAA receptor [3]): > 500%

Question: Which EC50 (α5β2γ2 GABAA receptor) does the source give for `C[C@]1(O)CC[C@@]2(C)[C@@H](CC[C@@H]3[C@@H]2CC[C@]2(C)[C@@H](C(=O)Cn4cc(C#N)cn4)CC[C@@H]32)C1` [SPNC-019, reference compound] here?
Answer: 1.2 µM

Question: And the EC50 (α5β3γ2 GABAA receptor)?
Answer: 1.81 µM

Question: And the EC50 (α6β3γ2 GABAA receptor)?
Answer: 1.77 µM

Question: What about the “modulating activity across the GABAA receptor subtypes tested” value (GABAA receptor subtypes) of the same compound?
Answer: no modulating activity in 15 of the 18 GABAA receptor subtypes tested

Question: Which EC50 (α1β1γ2 GABAA receptor) does the source give for `C[C@@]1(O)CC[C@@]2(C)[C@@H](CC[C@@H]3[C@@H]2CC[C@]2(C)[C@@H](C(=O)Cn4cc(C#N)cn4)CC[C@@H]32)C1` [CV-10155] here?
Answer: 0.521 µM

Question: What about the EC50 (α1β2γ2 GABAA receptor [4]) of the same compound?
Answer: 0.839 µM

Question: And the EC50 (α1β3γ2 GABAA receptor)?
Answer: 0.52 µM

Question: And the EC50 (α2β1γ2 GABAA receptor)?
Answer: 0.253 µM

Question: And the EC50 (α2β2γ2 GABAA receptor)?
Answer: 0.213 µM

Question: What about the EC50 (α2β3γ2 GABAA receptor) of the same compound?
Answer: 0.296 µM

Question: And the EC50 (α3β1γ2 GABAA receptor)?
Answer: 0.946 µM

Question: And the EC50 (α3β2γ2 GABAA receptor)?
Answer: 1.82 µM

Question: And the EC50 (α3β3γ2 GABAA receptor)?
Answer: 0.273 µM

Question: What about the EC50 (α4β1γ2 GABAA receptor) of the same compound?
Answer: 0.204 µM

Question: And the EC50 (α4β3γ2 GABAA receptor)?
Answer: 1.33 µM

Question: And the EC50 (α5β1γ2 GABAA receptor)?
Answer: 0.762 µM

Question: And the EC50 (α5β2γ2 GABAA receptor)?
Answer: 0.359 µM

Question: And the EC50 (α5β3γ2 GABAA receptor)?
Answer: 1.3 µM

Question: What about the EC50 (α6β1γ2 GABAA receptor) of the same compound?
Answer: 0.359 µM

Question: What about the EC50 (α6β2γ2 GABAA receptor) of the same compound?
Answer: 1.1 µM

Question: What about the EC50 (α6β3γ2 GABAA receptor) of the same compound?
Answer: 0.245 µM

Question: And the “modulating activity across the GABAA receptor subtypes tested” value (GABAA receptor subtypes)?
Answer: some level of positive allosteric modulating activity in all of the GABAA receptor subtypes tested

Question: What about the EC50 (α4β3δ GABAA receptor [5]; FLIPR, cells exposed to GABA plus compound, — = value not measurable) of the same compound?
Answer: 0.106 µM

Question: What about the “activity on α4β3δ compared with α1β2γ2 GABAA receptors, in words” value (α4β3δ GABAA receptor [5]; data of Example 1) of the same compound?
Answer: substantially more active on α4β3δ GABAA receptors than on α1β2γ2 GABAA receptors

Question: And the “EC50 for α4β3δ receptors lower than for α1β2γ2 receptors” value (α4β3δ GABAA receptor [5]; isomerically pure composition, α4β3δ versus α1β2γ2)?
Answer: at least 5 fold
